We go through five compounds from US20140194559A1, “Novel Inhibitor Compositions and Methods of Use” (NuFarm UK Limited, priority 2011, published 2014).

Data set [1] is described as follows: Solubility of antipolymerants in ethylbenzene. Type of data set: physicochemical. As to conditions: solvent ethylbenzene. The text has this:
(§1) In order to highlight the increased antipolymerant content that can be achieved, the solubility of three antipolymerants in ethylbenzene, a widely used solvent for supplying antipolymerants for styrene monomer production, is compared with concentration when the antipolymerant is supplied as a SC. The comparative data for the antipolymerants are set out in Table 1.
Thus, it is clear that, for all three active components, the concentration achieved in the SC is far greater than that observed in ethylbenzene. The same concentration could also be obtained when two of the active components were combined in the SC. By contrast, combining more than one of the actives in ethylbenzene, the total concentration of actives was reduced. Thus, for a combination of 2,5-di-tert-butyl-p-benzoquinone and dibenzylhydroxylamine, the total concentration in ethylbenzene was <10 w/w %.

Data set [2] is described as follows: Maximum concentration of actives in suspension concentrate (SC). The conditions noted are these: for Concentration in SC: maximum concentration of active in suspension concentrate. Type of data set: physicochemical. The protocol:
To the liquid carrier (approximately 80% of the required amount) is added the required quantity of the dispersing agent and the mixture is stirred until a fully homogeneous solution is formed. Under high shear conditions, the desired amount of active inhibitor component is added to the dispersant solution and the formulation is stirred until it becomes completely homogeneous. The resulting dispersed active inhibitor is transferred to a bead mill where it is continuously milled until the required particle size distribution is obtained. Desirably, the particle size is less than 10 microns. Under additional stirring, the remaining liquid carrier, optionally a preservative agent and optionally a thickening agent are added to the milled formulation until a homogeneous suspension concentrate is formed. The required quantities of the components of the formulation are in each case determined with reference to the scale of the process which is being conducted.
as §1
(§2) This effect is further illustrated by reference to a further example wherein a stable suspension concentrate of phenothiazine (PTZ), containing 40 percent by weight of the PTZ component, was easily obtained using the above methodology. PTZ is a widely used inhibitor in (meth)acrylic acid and ester processes, but has low solubility in most solvents that are compatible with such processes. In most industrial cases, PTZ is supplied in its solid form and dissolved in the monomer to form a dilute solution for dosing into the monomer purification process. Thus, for example, in laboratory tests, PTZ had the following solubilities: acrylic acid (2.6 w/w %), methacrylic acid (2.4 w/w %), n-butyl acrylate (9.7 w/w %), methyl methacrylate (8.4 w/w %).

For data set [3] the following is noted: hazard classification; cited from earlier work.
The nature of data set [4]: Laboratory solubility tests of PTZ in monomers. Type of data set: physicochemical.
Description: as §2

Data set [5] is described as follows: Acrylic acid tube test (inhibition period). The conditions noted are these: 25 ppm inhibitor, lean air (5% oxygen in nitrogen), 120° C., until first white precipitate. The protocol:
In a typical test, a series of tubes containing acrylic acid and inhibitor was sparged with a lean air mixture (5% oxygen in nitrogen). These tubes were then heated at 120° C. until the first signs of polymerisation were detected (by means of the formation of white precipitate), and this was determined as the inhibition period.

The nature of data set [6]: Batch tests: polymer content in refluxing styrene monomer. As to conditions: for Effect: batch test, styrene, 120° C., inhibitor or retarder. How it is done: The particular ethylenically unsaturated compound used in the tests was a vinyl aromatic monomer, specifically styrene monomer. The use of a vinyl aromatic monomer for this purpose is illustrative and is not intended to exclude other ethylenically unsaturated compounds from the scope of this invention.
Batch tests (the results of which are detailed in Table 2), and continuous flow tests were carried out in order to represent different types of processing conditions which can occur in the industrial processing of ethylenically unsaturated compounds. These tests compare the compositions of the present invention with compositions of the prior art.
The batch test was designed in order to show whether a test composition is an inhibitor or a retarder. The tests were carried out in styrene monomer refluxing under reduced pressure at 120° C. in order to reduce the presence of atmospheric oxygen to such low levels as can be expected in a commercial styrene monomer purification plant.
For the batch tests the vinyl aromatic monomer composition containing the test substances was heated to 120° C. and stirred under reduced pressure so that it refluxed at the test temperature. Samples were taken at intervals of time and tested for polymer content in order to assess the effectiveness of polymerisation control.

As to `CC(C)(C)C1=CC(=O)C(C(C)(C)C)=CC1=O` [BQ, 2,5-di-tert-butyl-p-benzoquinone], in data set [1], the Solubility in ethylbenzene came to 11.9 w/w %. Besides, the “Concentration in SC” value in data set [2] was 45.0 w/w %. Moreover, in data set [3], the “Dermal Toxicity” value was “No”, the “Oral Toxicity” value is “No” and the “Toxic by Inhalation” value is “No”.
`c1ccc2c(c1)Nc1ccccc1S2` [PTZ, phenothiazine]: the “PTZ content of stable suspension concentrate” value in data set [2] (stable suspension concentrate) was found to be 40 percent by weight. Moreover, the “solubility in acrylic acid” value in data set [4] (acrylic acid) was determined as 2.6 w/w %. The “solubility in methacrylic acid” value in data set [4] (methacrylic acid) came to 2.4 w/w %. Further, in data set [4] (methyl methacrylate), the “solubility in methyl methacrylate” value was 8.4 w/w %. Further, the “solubility in n-butyl acrylate” value in data set [4] (n-butyl acrylate) worked out at 9.7 w/w %. For the same compound, the “Inhibition Period” value in data set [5] is listed as 531 min.
`CCC(C)c1cc([N+](=O)[O-])cc([N+](=O)[O-])c1O` (stereo not shown) [DNBP, 4,6-Dinitro-2-sec-butyl phenol]: the Effect result in data set [6] is “retarder”; in data set [6] (listed as Control 1) it was “Retarder”. Moreover, the “Polymer (ppm) @ (time) 180 mins” value in data set [6] (styrene refluxing under reduced pressure at 120° C., 180 mins, component doses in ppm as in table) was determined as 4000 ppm. In addition, the “Dermal Toxicity” value in data set [3] is recorded as “Yes”.
`CC(C)(C)c1cc(O)c(C(C)(C)C)cc1O` [HQ, 2,5-di-tert-butyl hydroquinone]: the Solubility in ethylbenzene in data set [1] stood at 6.7 w/w %. Moreover, the “Concentration in SC” value in data set [2] turned out to be 45.0 w/w %.
For the compound `ON(Cc1ccccc1)Cc1ccccc1` [DBHA, N,N-dibenzyl hydroxylamine], in data set [1], the Solubility in ethylbenzene was 1.6 w/w %. For the same compound, the “Concentration in SC” value in data set [2] was 45.0 w/w %. In data set [3], the “Dermal Toxicity” value is given as “No”, the “Oral Toxicity” value is given as “No” and the “Toxic by Inhalation” value is recorded as “No”.
